From patent publication US20230082929A1, “METHODS OF GENERATING AND USING SENESCENT-INDUCED CELLS FOR TREATMENT OF CANCER AND COMPOSITIONS RELATING THERETO” (The Wistar Institute of Anatomy and Biology, priority 2020, published 2023)

What was measured:
SASP factors [1] = assay: SASP factor expression (qRT-PCR) and secretion (antibody array) in UPK10 cells; type: cell-based, mouse
Experimental: UPK10 and ID8 cells were treated with […], or a combination for three days. The drugs were then released from drug treatment and cultured for three days or extended period as indicated. The senescent cells were labelled with SPiDER-0 Gal Cellular Senescence Detection Kit (Dojindo, Cat. No: SG02-10) following the manufacture's instruction. Both senescent and non-senescent cells were sorted using flow cytometry. Mouse Cytokine Array C1 kit (RayBiotech. Cat. No: AAM-CYT-1-2) was used for cytokine analysis following the manufacturer's guidelines. Briefly, cells were washed once and cultured in serum-free medium for 48 hrs. Conditioned medium was filtered (0.2 μm) and then subjected to cytokine-array analysis. After collection of conditional media, the cell number of each sample was counted. The intensities of array dots were visualized on film after incubation with SuperSignal West Pico PLUS Chemiluminescent Substrate (Thermo Fisher Scientific. Cat. No: 34580). The integrated density was measured using Image J and normalized to the cell number from which the conditioned medium was generated. Total RNA was isolated using Trizol (Invitrogen) according to the manufacturer's instruction. Extracted RNAs were used for reverse-transcriptase PCR (RT-PCR) with High-Capacity cDNA Reverse Transcription Kit (Thermo fisher, Cat. No: 4368814). Quantitative PCR (qPCR) was performed using iTaq™ Universal SYBR® Green Supermix (BIO-RAD, Cat. No: 1725121) and QuantStudio 3 Real-Time PCR System.

UPK10 cells = assay: Senescence induction in UPK10 cells (SA-β-Gal, SPiDER SA-β-Gal, immunoblot); type: cell-based, mouse
Experimental: (§1) SA-β-Gal staining was performed as previously described (Nacarelli et al., 2019). Briefly, cells were fixed for 5 mins at room temperature in 2% formaldehyde/0.2 glutaraldehyde in PBS. After washing twice with PBS, cells were stained at 37° C. overnight in a non-CO2 incubator in staining solution (40 mM Na2HPO4, pH 6.0, 150 mM NaCl, 2 mM MgCl2, 5 mM K3Fe(CN)6, 5 mM K4Fe(CN)6, and 1 mg/ml X-gal. After counterstaining with Nuclear Fast Red solution (Ricca, Cat. No: R5463200500), slides were subjected to an alcohol dehydration series and mounted with Permount (FisherScientific. Cat. No: SP15-100). Slides were examined using a Zeiss AxioImager A2.
(§2) UPK10 and ID8 cells were treated with […], or a combination for three days. The drugs were then released from drug treatment and cultured for three days or extended period as indicated. The senescent cells were labelled with SPiDER-0 Gal Cellular Senescence Detection Kit (Dojindo, Cat. No: SG02-10) following the manufacture's instruction. Both senescent and non-senescent cells were sorted using flow cytometry.
(§3) Cells were lysed in 1× sample buffer (2% SDS, 10% glycerol, 0.01% bromophenol blue, 62.5 mM Tris, pH 6.8, and 0.1 M DTT) and heated to 95° C. for 10 min. Protein concentrations were determined using the protein assay dye (Bio-Rad. Cat. No: #5000006) and Nanodrop. An equal amount of total protein was resolved using SDS-PAGE gels and transferred to PVDF membranes at 110 V for 2 hours at 4° C. Membranes were blocked with 5% nonfat milk in TBS containing 0.1% Tween 20 (TBS-T) for 1 hour at room temperature. Membranes were incubated overnight at 4° C. in the primary antibodies in 4% BSA/TBS+0.025% sodium azide. Membranes were washed four times in TBS-T for 5 min at room temperature, after which they were incubated with HRP-conjugated secondary antibodies (Cell Signaling Technology. Cat. No: 7076S, 7074S) for 1 hour at room temperature. After washing four times in TBS-T for 5 min at room temperature, proteins were visualized on film after incubation with SuperSignal West Pico PLUS Chemiluminescent Substrate (Thermo Fisher Scientific. Cat. No: 34580).

ID8-Defb29/Vegf-a cells = assay: Cisplatin-induced senescence, SA-β-gal staining of ID8-Defb29/Vegf-a cells; type: cell-based, mouse; details: 2 μM Cisplatin for 48 hours
Experimental: For oncogene-induced senescence, IMR90 cells were infected with retrovirus produced by pBABE-puro-H-RAS^G12V (Addgene) at 37° C. for 24 hr. A second round of infection was performed on the same target cells. Infected cells were drug-selected using 3 μg/ml puromycin (Nacarelli et al., 2019). For Etoposide-induced senescence, IMR90 or OVCAR3 cells at approximately 60-70% confluency were treated with 50 μM or 2 μM Etoposide for 48 hours. The treated cells were cultured in fresh medium and harvested at day 8. For Cisplatin-induced senescence, OVCAR3 or ID8-Defb29/Vegf-a cells at approximately 60-70% confluency were treated with 2 μM Cisplatin for 48 hours. The treated cells were cultured in fresh medium and harvested at day 8.
as §1

TOP1cc = target: T1, TOP1cc (Mus musculus, UniProt Q04750); assay: Immunoblot of TOP1cc and SASP regulators in sorted UPK10 cells; type: cell-based
T1 construct: endogenous in cells; host or cells: UPK10 mouse ovarian cancer cells, sorted senescent and non-senescent fractions
T1 sequence (Q04750 1-767): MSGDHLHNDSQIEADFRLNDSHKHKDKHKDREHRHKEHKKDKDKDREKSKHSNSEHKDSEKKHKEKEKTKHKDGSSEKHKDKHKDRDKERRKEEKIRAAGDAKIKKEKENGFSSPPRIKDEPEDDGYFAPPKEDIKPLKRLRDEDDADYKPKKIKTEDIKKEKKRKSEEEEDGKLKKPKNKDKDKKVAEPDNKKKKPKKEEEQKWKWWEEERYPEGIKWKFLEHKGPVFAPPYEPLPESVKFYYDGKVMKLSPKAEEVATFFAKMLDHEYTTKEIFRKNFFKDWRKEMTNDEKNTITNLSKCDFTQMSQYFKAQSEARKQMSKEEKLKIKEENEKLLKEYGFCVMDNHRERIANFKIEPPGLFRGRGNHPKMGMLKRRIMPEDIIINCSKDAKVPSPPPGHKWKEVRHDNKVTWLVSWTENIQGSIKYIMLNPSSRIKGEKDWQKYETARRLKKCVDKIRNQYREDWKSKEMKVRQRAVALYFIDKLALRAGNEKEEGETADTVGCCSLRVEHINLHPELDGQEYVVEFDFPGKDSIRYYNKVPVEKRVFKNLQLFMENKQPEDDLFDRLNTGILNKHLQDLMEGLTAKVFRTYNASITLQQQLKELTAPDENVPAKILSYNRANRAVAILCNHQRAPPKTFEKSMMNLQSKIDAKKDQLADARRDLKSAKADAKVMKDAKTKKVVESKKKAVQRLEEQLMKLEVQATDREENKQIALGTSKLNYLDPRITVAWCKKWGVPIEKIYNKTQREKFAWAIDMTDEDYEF
Experimental: as §2, §3
• anti-Topoisomerase I-DNA Covalent Complexes (TOP1cc) (clone 1.1A) (Millipore. Cat. No: MABE1084), 1:1000 for slot blot • anti-TOP1 (Proteintech. Cat. No: 20705-1-AP), 1:1000 for immunoblotting • anti-cGAS (D9) (Santa Cruz. Cat. No: sc-515777), 1:1000 for immunoblotting; • anti-Cyclin A (H432) (Santa Cruz. Cat. No: sc-751), 1:1000 for immunoblotting; • anti-βactin (Sigma. Cat. No: A2228), 1:10000 for immunoblotting.

SASP factors [2] = assay: SASP factor expression by qRT-PCR in ID8 cells; type: cell-based, mouse
Experimental: UPK10 and ID8 cells were treated with […], or a combination for three days. The drugs were then released from drug treatment and cultured for three days or extended period as indicated. The senescent cells were labelled with SPiDER-0 Gal Cellular Senescence Detection Kit (Dojindo, Cat. No: SG02-10) following the manufacture's instruction. Both senescent and non-senescent cells were sorted using flow cytometry. Total RNA was isolated using Trizol (Invitrogen) according to the manufacturer's instruction. Extracted RNAs were used for reverse-transcriptase PCR (RT-PCR) with High-Capacity cDNA Reverse Transcription Kit (Thermo fisher, Cat. No: 4368814). Quantitative PCR (qPCR) was performed using iTaq™ Universal SYBR® Green Supermix (BIO-RAD, Cat. No: 1725121) and QuantStudio 3 Real-Time PCR System.

[3] = cisplatin three days, three days of release

Compound: Cc1ccc2c(=O)c3cccc(CC(=O)O)c3oc2c1C [DMXAA]
- SASP factor levels compared with senescent cells sorted from cisplatin and irinotecan combination treatment (SASP factors [1]; UPK10 cells): significantly lower levels
- expression and secretion of SASP factors (SASP factors [1]; UPK10 cells, DMXAA as control): sufficient to increase the expression and secretion of SASP factors

Compound: N.N.[Cl][Pt][Cl] [cisplatin, Cisplatin]
- cell proliferation marker cyclin A (UPK10 cells; [3]): decrease in cell proliferation marker cyclin A
- markers of senescence (SA-β-Gal activity, p16, γH2AX) (UPK10 cells; [3]): induction of markers of senescence including senescence-associated β-galactosidase (SA-β-Gal) activity, p16 and γH2AX
- treated cells in which senescence was induced (ID8-Defb29/Vegf-a cells): ~100%
- concentration chosen on optimal induction of SASP factors IL1β, IL8, CXCL10 in a dose-titration study (SASP factors [1]; UPK10 cells): 10 µM

Compound: CCc1c2c(nc3ccc(OC(=O)N4CCC(N5CCCCC5)CC4)cc13)-c1cc3c(c(=O)n1C2)COC(=O)[C@]3(O)CC [irinotecan]
- percentage of senescent cells induced by cisplatin with or without irinotecan (SPiDER SA-β-Gal) (UPK10 cells): comparable
- SA-β-Gal activity (SPiDER) (UPK10 cells; irinotecan alone): also induced SA-β-Gal activity
- TOP1cc levels in sorted senescent cells (TOP1cc; compared with cisplatin-induced senescent cells, UPK10): increased by irinotecan addition
- TOP1cc levels in sorted non-senescent cells (TOP1cc; compared with vehicle control treated non-senescent cells, UPK10): notably higher
- SASP regulators phospho-p65 NF-κB and phosphor-p38 MAPK (TOP1cc; sorted senescent UPK10 cells): increase in SASP regulators such as phospho-p65 NF-κB and phosphor-p38 MAPK
- expression of SASP factors at the mRNA levels (qRT-PCR) (SASP factors [1]; sorted senescent UPK10 cells induced by cisplatin): significantly increased the expression of SASP factors
- SASP expression in cisplatin-induced senescent ID8 cells (SASP factors [2]): boosts SASP expression
